The values below come from patent US10266535B2, “Inhibitor of FLT3 kinase and use thereof” (HEFEI INSTITUTES OF PHYSICAL SCIENCE, CHINESE ACADEMY OF …, priority 2015, dated 2019).

Test [1] relates to TEL-BaF3-FLT3/ITD (stably expressing FLT3/ITD mutant activated kinase). The test can be described thus: Cell proliferation, Cell Titer-Glo, TEL-BaF3-FLT3/ITD. It is filed as cell-based, mouse. The conditions noted are these: Mus musculus, 72 h, incubated for 72 hours; read-out: TEL-BaF3-FLT3/ITD IC50. The procedure:
(§1) The above cell lines were constructed by our laboratory.
(§2) The number of viable cells was determined by quantification of ATP in living cells using the Cell Titer-Glo® (Promega, USA) chemiluminescence cell viability assay kit.
(In ATP-based viability assays light output follows the ATP content of the culture.)

Test [2] relates to U937 (expressing wild-type FLT3 gene). Description: Cell proliferation, Cell Titer-Glo, U937. It is filed as cell-based, human. As to conditions: Homo sapiens, U-937, 72 h, incubated for 72 hours; read-out: U937 IC50. The procedure: as §1, §2
The test system of test [3] is OCI-AML-3 (expressing FLT3 A680V mutant gene). The test can be described thus: Cell proliferation, Cell Titer-Glo, OCI-AML3. It is filed as cell-based. The conditions noted are these: Homo sapiens, incubated for 72 hours. The procedure:
as §1, §2

For test [4], the system named is MV4-11 (expressing FLT3/ITD mutant gene). The test can be described thus: Cell proliferation, Cell Titer-Glo, MV4-11. The test is classed as cell-based. As to conditions: Homo sapiens, MV4-11; incubated for 72 hours; read-out: MV4-11 IC50. The procedure: as §1, §2
A further test addresses BTK protein kinase (Homo sapiens (Human), UniProt Q06187). Description: In vitro inhibition activity (enzymatic activity), ADP-Glo, BTK. The conditions noted are these: ATP 10 μM. It is filed as biochemical.
Test [5] has as its system MOLM-13 (expressing FLT3/ITD mutant gene and wild-type FLT3 gene). The test can be described thus: Cell proliferation, Cell Titer-Glo, MOLM-13. It is filed as cell-based. As to conditions: Homo sapiens, MOLM-13; incubated for 72 hours; read-out: MOLM-13 IC50. The procedure:
as §1, §2

In test [6] the test system is TPR-MET-BaF3 (stably expressing MET kinase). Description: Cell proliferation, Cell Titer-Glo, TPR-MET-BaF3. The test is classed as cell-based. As to conditions: Mus musculus; incubated for 72 hours. The procedure: as §1, §2
Another test has as its system pro-B cell BaF3. Description: Cell proliferation, Cell Titer-Glo, BaF3. The test is classed as cell-based. As to conditions: Mus musculus, incubated for 72 hours. The procedure: as §1, §2
Test [7] relates to MOLM-14 (expressing FLT3/ITD mutant gene and wild-type FLT3 gene). The test can be described thus: Cell proliferation, Cell Titer-Glo, MOLM-14. The conditions noted are these: Homo sapiens, MOLM-14; incubated for 72 hours; read-out: MOLM-14 IC50. It is filed as cell-based. Here is the method: as §1, §2
Test [8] deals with TEL-BaF3-BLK (stably expressing BLK kinase). The test can be described thus: Cell proliferation, Cell Titer-Glo, TEL-BaF3-BLK. The test is classed as cell-based. As to conditions: Mus musculus; incubated for 72 hours. Here is the method:
as §1, §2

Test [9] deals with TEL-BaF3-BMX (stably expressing BMX kinase). Description: Cell proliferation, Cell Titer-Glo, TEL-BaF3-BMX. It is filed as cell-based. As to conditions: Mus musculus; incubated for 72 hours. The procedure:
as §1, §2

Test [10] has as its system TEL-cKIT-BaF3 (stably expressing cKIT kinase). Description: Cell proliferation, Cell Titer-Glo, TEL-cKIT-BaF3. It is filed as cell-based. As to conditions: Mus musculus; incubated for 72 hours. Here is the method:
as §1, §2

Chain of BTK protein kinase (Q06187 whole entry): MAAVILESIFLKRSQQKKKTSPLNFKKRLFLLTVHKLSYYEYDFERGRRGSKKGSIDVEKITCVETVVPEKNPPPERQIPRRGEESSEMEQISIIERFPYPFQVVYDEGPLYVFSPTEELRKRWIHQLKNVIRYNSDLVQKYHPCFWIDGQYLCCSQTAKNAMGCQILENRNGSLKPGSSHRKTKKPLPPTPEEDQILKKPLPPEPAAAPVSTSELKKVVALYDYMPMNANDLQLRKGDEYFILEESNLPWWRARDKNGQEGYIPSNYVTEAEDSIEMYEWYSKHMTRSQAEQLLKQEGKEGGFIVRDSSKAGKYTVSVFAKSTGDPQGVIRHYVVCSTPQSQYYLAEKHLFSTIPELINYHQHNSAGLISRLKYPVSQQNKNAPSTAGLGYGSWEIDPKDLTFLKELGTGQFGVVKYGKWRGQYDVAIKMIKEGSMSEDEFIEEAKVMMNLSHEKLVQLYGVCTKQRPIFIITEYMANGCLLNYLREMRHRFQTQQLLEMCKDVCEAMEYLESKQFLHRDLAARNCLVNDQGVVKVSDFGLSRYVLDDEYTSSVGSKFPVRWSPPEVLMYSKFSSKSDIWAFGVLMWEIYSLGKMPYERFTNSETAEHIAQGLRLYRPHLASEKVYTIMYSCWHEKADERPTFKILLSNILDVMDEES

As to `CCCS(=O)(=O)N1CCC[C@@H](n2nc(-c3ccc(Oc4ccccc4)cc3)c3c(N)ncnc32)C1` [Compound 40, (R)-3-(4-phenoxyphenyl)-1-(1-(propylsulfonyl)piperidin-3-yl)-1H-pyrazolo[3,4-d]pyrimidin-4-amine], the IC50 was 160 nM in test [1], 4450 nM in test [2], 6610 nM in test [3] and 760 nM in test [4].
As to `Nc1ncnc2c1c(-c1ccc(Oc3ccccc3)cc1)nn2[C@@H]1CCCN(C(=O)[C@H](N)CO)C1` [Compound 48], the IC50 on BTK protein kinase worked out at 28 nM; in test [5] it was 52 nM; in test [6] it was 3520 nM; with pro-B cell BaF3 it was 6500 nM; in test [1], 46 nM; in [7], 79 nM. Moreover, the IC50 in test [2] is greater than 10000 nM; in test [3] it was 4360 nM; in test [8] it was 1100 nM; in test [4], 61 nM.
As to `CC(O)[C@@H](N)C(=O)N1CCC[C@@H](n2nc(-c3ccc(Oc4ccccc4)cc3)c3c(N)ncnc32)C1` (stereo partly drawn) [Compound 44, (R)-2-amino-1-((R)-3-(4-amino-(4-phenoxyphenyl)-1H-pyrazolo[3,4-d]pyrimidin-1-yl)piperidin-1-yl)-3-hydroxybutanone], the IC50 on BTK protein kinase was 53 nM; in test [5], 72 nM; in [6], 2760 nM; in the test on pro-B cell BaF3, 3900 nM; in [1], 22 nM; in test [7], 59 nM. Further, the IC50 is greater than 10000 nM in [2]; 3760 nM in test [3]; 1000 nM in test [8]; 64 nM in test [4]; 119 nM in test [9].
Turning to `CC(=O)N1CCC[C@@H](n2nc(-c3ccc(Oc4ccccc4)cc3)c3c(N)ncnc32)C1` [Compound 34], the IC50 in [1] is 70 nM; in test [2], greater than 10000 nM; in [3], 3560 nM; in test [4], 350 nM.
The like results for `CN1CCN(Cc2ccc(C(=O)N3CCC[C@@H](n4nc(-c5ccc(Oc6ccccc6)cc5)c5c(N)ncnc54)C3)cc2)CC1` [Compound 35, (R)-(3-(4-amino-(4-phenoxyphenyl)-1H-pyrazolo[3,4-d]pyrimidin-1-yl)piperidin-1-yl)(4-((4-methylpiperazin-1-yl)methyl)phenyl)methanone] were, in that order, 70 nM, 1060 nM, 620 nM and 280 nM.
Taken in the same sequence, the figures for `CC(C)CC(=O)N1CCC[C@@H](n2nc(-c3ccc(Oc4ccccc4)cc3)c3c(N)ncnc32)C1` [Compound 53] were 770 nM, greater than 10000 nM, greater than 10000 nM and 3400 nM.
Taken in the same sequence, the figures for `CN1CCN(CC(=O)N2CCC[C@@H](n3nc(-c4ccc(Oc5ccccc5)cc4)c4c(N)ncnc43)C2)CC1` [Compound 39] were 93 nM, 5870 nM, 4910 nM and 230 nM.
`Nc1ncnc2c1c(-c1ccc(Oc3ccccc3)cc1)nn2[C@@H]1CCCN(C(=O)CCCl)C1` [Compound 36]: the IC50 in [1] was 150 nM; in [2], 8960 nM; in test [3], greater than 10000 nM; in test [4], 670 nM.
The like results for `Nc1ncnc2c1c(-c1ccc(Oc3ccccc3)cc1)nn2[C@@H]1CCCN(C(=O)C2CC2)C1` [Compound 1, (R)-(3-(4-amino-(4-phenoxyphenyl)-1H-pyrazolo[3,4-d]pyrimidin-1-yl)piperidin-1-yl)(cyclopropyl)methanone] were, in that order, 1400 nM, greater than 10000 nM, greater than 10000 nM and 6500 nM.
Regarding `Nc1ncnc2c1c(-c1ccc(Oc3ccccc3)cc1)nn2[C@@H]1CCCN(C(=O)[C@@H](N)Cc2c[nH]c3ccccc23)C1` [Compound 9, (S)-2-amino-1-((R)-3-(4-amino-(4-phenoxyphenyl)-1H-pyrazolo[3,4-d]pyrimidin-1-yl)piperidin-1-yl)-3-(1H-indol-3-yl)propan-1-one], the IC50 was 49 nM against BTK protein kinase and greater than 10000 nM in test [2].
`Nc1ncnc2c1c(-c1ccc(Oc3ccccc3)cc1)nn2[C@@H]1CCCN(C(=O)CC2CC2)C1` [Compound 52]: the IC50 in test [1] is 82 nM; in test [2], greater than 10000 nM; in [3] it was 7890 nM; in test [4], 410 nM.
The like results for `CC(Br)C(=O)N1CCC[C@@H](n2nc(-c3ccc(Oc4ccccc4)cc3)c3c(N)ncnc32)C1` (stereo partly shown) [Compound 37] were, in that order, 150 nM, greater than 10000 nM, 1090 nM and 230 nM.
Taken in the same sequence, the figures for `CC(C)(C)C(=O)N1CCC[C@@H](n2nc(-c3ccc(Oc4ccccc4)cc3)c3c(N)ncnc32)C1` [Compound 55] were 1800 nM, greater than 10000 nM, greater than 10000 nM and greater than 10000 nM.
Consider `Nc1ncnc2c1c(-c1ccc(Oc3ccccc3)cc1)nn2[C@@H]1CCCN(C(=O)CC(F)(F)F)C1` [Compound 51], for which the IC50 is 150 nM in test [1], greater than 10000 nM in test [2], greater than 10000 nM in [3] and 610 nM in test [4].
As to `CN1CCN(CCC(=O)N2CCC[C@@H](n3nc(-c4ccc(Oc5ccccc5)cc4)c4c(N)ncnc43)C2)CC1` [Compound 58], the IC50 amounted to 190 nM in test [5]; 3720 nM with pro-B cell BaF3; 94 nM in test [1]; 7400 nM in test [10]; 150 nM in [8]; 58 nM in [4]. The same compound came in with an IC50 in test [9] of 270 nM.
Regarding `Nc1ncnc2c1c(-c1ccc(Oc3ccccc3)cc1)nn2[C@@H]1CCCN(C(=O)C(Cl)(Cl)Cl)C1` [Compound 42], the IC50 in test [1] was 390 nM; in test [2] it was greater than 10000 nM; in test [3] it was greater than 10000 nM; in test [4] it was 1900 nM.
`CC(Cl)C(=O)N1CCC[C@@H](n2nc(-c3ccc(Oc4ccccc4)cc3)c3c(N)ncnc32)C1` (stereo partly shown) [Compound 38]: the IC50 is 120 nM in test [1], 7930 nM in test [2], 6510 nM in [3] and 970 nM in test [4].
As for `Nc1ncnc2c1c(-c1ccc(Oc3ccccc3)cc1)nn2[C@@H]1CCCN(C(=O)[C@@H](N)Cc2c[nH]cn2)C1` [Compound 6, (S)-2-amino-1-((R)-3-(4-amino-(4-phenoxyphenyl)-1H-pyrazolo[3,4-d]pyrimidin-1-yl)piperidin-1-yl)-3-(1H-imidazol-4-yl)propan-1-one], the IC50 was 128 nM against BTK protein kinase, 1100 nM in test [1] and greater than 10000 nM in test [2].
On to `NCCC(=O)N1CCC[C@@H](n2nc(-c3ccc(Oc4ccccc4)cc3)c3c(N)ncnc32)C1` [Compound 46], for which the IC50 in test [1] worked out at 390 nM; in test [2] it was 5680 nM; in test [3], 8610 nM; in test [4] it was 750 nM.
With `CCCC(=O)N1CCC[C@@H](n2nc(-c3ccc(Oc4ccccc4)cc3)c3c(N)ncnc32)C1` [Compound 54], the IC50 was 450 nM in [1], greater than 10000 nM in [2], greater than 10000 nM in test [3] and 1200 nM in [4].
With `CCS(=O)(=O)N1CCC[C@@H](n2nc(-c3ccc(Oc4ccccc4)cc3)c3c(N)ncnc32)C1` [Compound 41, (R)-3-(4-phenoxyphenyl)-1-(1-(ethylsulfonyl)piperidin-3-yl)-1H-pyrazolo[3,4-d]pyrimidin-4-amine], the IC50 in [1] amounted to 140 nM; in [2] it was 5840 nM; in test [3] it was 4850 nM; in [4], 570 nM.
As for `CCC(C)(C)C(=O)N1CCC[C@@H](n2nc(-c3ccc(Oc4ccccc4)cc3)c3c(N)ncnc32)C1` [Compound 50], the IC50 is 260 nM in test [1], greater than 10000 nM in test [2], greater than 10000 nM in test [3] and 2400 nM in [4].
Turning to `CS(=O)(=O)N1CC[C@@H](n2nc(-c3ccc(Oc4ccccc4)cc3)c3c(N)ncnc32)C1` [Compound 67, (R)-1-(1-(methylsulfonyl)pyrrolidin-3-yl)-3-(4-phenoxyphenyl)-1H-pyrazolo[3,4-d]pyrimidin-4-amine], the IC50 was 1460 nM in test [5], greater than 10000 nM with pro-B cell BaF3, 130 nM in [1] and 420 nM in [4].
On to `CC(C)(C)CC(=O)N1CCC[C@@H](n2nc(-c3ccc(Oc4ccccc4)cc3)c3c(N)ncnc32)C1` [Compound 49], for which the IC50 in test [1] was 460 nM; in test [2], greater than 10000 nM; in test [3], greater than 10000 nM; in [4] it was 2400 nM.
